Laboratory results taken from EP0012729A1, “Therapeutic compositions containing as active compound a substituted acetic acid or its salt” ("IBIS" ISTITUTO BIOCHIMICO SPERIMENTALE S.p.A., priority 1978, dated 1980).

Legend:
rat = assay: Prolonged administration for 180 consecutive days, tolerability; type: in vivo; conditions: 50 mg/kg/die for 180 consecutive days
[1] = Acute toxicity (DL50) in the rat; conditions: in vivo
Source text: The determination in the rat gave the following values: • DL50 by oral administration = 1720 (1520-1921) mg/kg • DL50 by i.p. administration = 1339 (1270-1744) mg/kg

[2] = Acute toxicity (DL50) in mus musculus; conditions: in vivo
Source text: The DL50 for the α-methyl-α-(3,4-dihydro-1-naphtyl)acetic acid (1.620) determined in the mus musculus had the following values: • DL50 by oral administration = 1663 (1451-1905) mg/kg • DL50 by i.^p. administration = 1383 (1226-1559) mg/kg

Wistar rats = assay: Choleretic activity in the rat, bile fistula method; type: in vivo; conditions: for ml of bile flow ± s.e.: second series
Source text: It is known that the primary effect of a choleretic agent is to increase the bile flow and the quantity of solid substances excreted with the bile. A good choleretic must provide this effect in a sufficiently intense and prolonged manner. In addition, as in the case of all drugs, it must have low acute toxicity and good general tolerability, but in particular must be free from toxic effects on the organ on which it is required to act, i.e. the liver, whether this is in a normal or pathological state. The analysis of the new product in comparison with the best known products for the same therapeutic use has therefore been focused on these aspects. The choleretic activity of the new product has been determined in the rat by using the bile fistula method. Wistar rats of both sexes and having a weight of between 180 and 240 g were used.
The animals, which were kept fasting for 12 hours but with free access to water, were narcotised by ethyl urethane in a dose of 1 g/kg by intra peritoneal or intramuscular injection.
After binding the animals to the retention bed, a median laparatomy was carried out, and when the bile duct had been isolated a cannula needle was inserted into it. A polythene tube was then inserted into those ani mals which were to receive the products intraduodenally, after which a su ture was carried out on the abdominal wall, and the bile was allowed to discharge for 30 minutes after inserting the cannula in the bile duct, so as to allow the discharge to become normal. The bile was then collec ted for one hour.
Having determined the volume of bile discharged during this first hour of collection (base volume), the products under examination were administered at the predetermined doses and by the predetermined methods. The bile excreted by the individual animals was then collected over each hour for a further six hours.
During the experiments, the animals were kept at ambient temperature of about 22°C, and at regular intervals of two hours received 10 ml/kg of physiological solution s.c.
The liquids were administered at a temperature of 37°C.
The bile flow and cholesterol excretion were determined on those bile fractions excreted by the animals over each hour starting from the base hour until the end of the experiment
The dry residue (R.So) was determined on the bile fraction excreted during the base hour and on the total bile fractions excreted during the sub sequent hours. For practical reasons, the determination of the dry residue and of the cholesterol (carried out by the Sperry & Webb method) were carried out on the pool of bile excreted by the entire group of animals subjected to the same treatment instead of on the bile fractions excreted by the individual animals (which was sometimes insufficient for determining the cholesterol).
In compiling the graphs, the differences between the choleresis in the treated animals and that in the controls was calculated over the considered time intervals, and expressed as a percentage of the base choleresis. For this calculation, the following formula was used: [formula] where Cn and C' represent the choleresis (in ml/kg/h for the bile flow, and in mg/kg/h for the dry residue) determined over the considered time interval for the group of treated animals and the group of controls respectively. Cb and C'b represent the base choleresis in the group of treated animals and group of controls respectively.
This index was calculated as the time for halving the maximum choleresis increase recorded under their effect.

[3] = ip, read-out: DL50 by i.p. administration
[4] = oral, read-out: DL50 by oral administration

In the case of `CC(C(=O)O)C1=CCCc2ccccc21` (stereo not drawn) [1.620, α-methyl-α-(3,4-dihydro-1-naphthyl)-acetic acid], the “Tolerability on prolonged administration” value (rat) is reported as “well tolerated”, the LD50 [1, 3] is reported as 1340 mg/kg and the LD50 [1, 4] is reported as 1720 mg/kg. The LD50 [2, 3] was 1380 mg/kg, the LD50 [2, 4] was 1660 mg/kg and the Flow (Wistar rats; 25 mg/kg i.d., 0 (base hour)) was 2,66±0,16 ml/kg/h. The Flow (Wistar rats; 25 mg/kg i.d., 1 h) was 4,24±0,25 ml/kg/h, the Flow (Wistar rats; 25 mg/kg i.d., 2 h) was 3,21±0,10 ml/kg/h and the Flow (Wistar rats; 25 mg/kg i.d., 3 h) was 2,89±0,10 ml/kg/h. The Flow (Wistar rats; 25 mg/kg i.d., 4 h) was 2,44±0,15 ml/kg/h, the Flow (Wistar rats; 25 mg/kg i.d., 5 h) was 2,20±0,14 ml/kg/h and the Flow (Wistar rats; 25 mg/kg i.d., 6 h) was 1,68±0,05 ml/kg/h. The Flow (Wistar rats; 25 mg/kg p.o., 0 (base hour)) was 3,05±0,33 ml/kg/h, the Flow (Wistar rats; 25 mg/kg p.o., 1h) was 3,89±0,47 ml/kg/h and the Flow (Wistar rats; 25 mg/kg p.o., 2h) was 3,13±0,24 ml/kg/h. The Flow (Wistar rats; 25 mg/kg p.o., 3h) was 2,84±0,21 ml/kg/h, the Flow (Wistar rats; 25 mg/kg p.o., 4h) was 2,35±0,19 ml/kg/h and the Flow (Wistar rats; 25 mg/kg p.o., 5h) was 2,05±0,21 ml/kg/h. For the same compound, the Flow (Wistar rats; 25 mg/kg p.o., 6h) was 1,87±0,39 ml/kg/h, the Flow (Wistar rats; 50 mg/kg i.d., 0 (base hour)) was 2,04±0,11 ml/kg/h and the Flow (Wistar rats; 50 mg/kg i.d., 1 h) was 3,90±0,28 ml/kg/h. For the same compound, the Flow (Wistar rats; 50 mg/kg i.d., 2 h) was 3,57±0,16 ml/kg/h, the Flow (Wistar rats; 50 mg/kg i.d., 3 h) was 2,69±0,09 ml/kg/h and the Flow (Wistar rats; 50 mg/kg i.d., 4 h) was 2,20±0,07 ml/kg/h. The Flow (Wistar rats; 50 mg/kg i.d., 5 h) was 2,00±0,10 ml/kg/h, the Flow (Wistar rats; 50 mg/kg i.d., 6 h) was 1,63±0,08 ml/kg/h and the Flow (Wistar rats; 50 mg/kg p.o., 0 (base hour)) was 2,76±0,09 ml/kg/h. For the same compound, the Flow (Wistar rats; 50 mg/kg p.o., 1h) was 4,90±0,16 ml/kg/h, the Flow (Wistar rats; 50 mg/kg p.o., 2h) was 3,74±0,13 ml/kg/h and the Flow (Wistar rats; 50 mg/kg p.o., 3h) was 3,34±0,13 ml/kg/h. For the same compound, the Flow (Wistar rats; 50 mg/kg p.o., 4h) was 2,73±0,07 ml/kg/h, the Flow (Wistar rats; 50 mg/kg p.o., 5h) was 2,60±0,08 ml/kg/h and the Flow (Wistar rats; 50 mg/kg p.o., 6h) was 2,25±0,09 ml/kg/h. For the same compound, the Flow (Wistar rats; 100 mg/kg i.d., 0 (base hour)) was 2,53±0,09 ml/kg/h, the Flow (Wistar rats; 100 mg/kg i.d., 1 h) was 6,61±0,27 ml/kg/h and the Flow (Wistar rats; 100 mg/kg i.d., 2 h) was 5,94±0,23 ml/kg/h. The Flow (Wistar rats; 100 mg/kg i.d., 3 h) was 4,12±0,14 ml/kg/h, the Flow (Wistar rats; 100 mg/kg i.d., 4 h) was 3,23±0,07 ml/kg/h and the Flow (Wistar rats; 100 mg/kg i.d., 5 h) was 2,74±0,06 ml/kg/h. For the same compound, the Flow (Wistar rats; 100 mg/kg i.d., 6 h) was 2,23±0,06 ml/kg/h, the Flow (Wistar rats; 100 mg/kg p.o., 0 (base hour)) was 2,40±0,23 ml/kg/h and the Flow (Wistar rats; 100 mg/kg p.o., 1h) was 4,44±0,28 ml/kg/h. The Flow (Wistar rats; 100 mg/kg p.o., 2h) was 4,95±0,39 ml/kg/h, the Flow (Wistar rats; 100 mg/kg p.o., 3h) was 4,10±0,32 ml/kg/h and the Flow (Wistar rats; 100 mg/kg p.o., 4h) was 3,10±0,31 ml/kg/h. The Flow (Wistar rats; 100 mg/kg p.o., 5h) was 2,79±0,23 ml/kg/h, the Flow (Wistar rats; 100 mg/kg p.o., 6h) was 2,33±0.25 ml/kg/h and the “Peak choleresis time of appearance” value (Wistar rats; 200 mg/kg p.o. (dose given for 1620 only)) was 2nd hour. The “Peak choleresis % increase” value (Wistar rats; 200 mg/kg p.o. (dose given for 1620 only), increase over controls as percentage of base choleresis) was 135%, the Duration index (Wistar rats; 200 mg/kg p.o. (dose given for 1620 only), time for halving the maximum choleresis increase) was 240' and the Flow (Wistar rats; 200 mg/kg p.o., 0 (base hour)) was 2,46±0,12 ml/kg/h. For the same compound, the Flow (Wistar rats; 200 mg/kg p.o., 1h) was 5,53±0,30 ml/kg/h, the Flow (Wistar rats; 200 mg/kg p.o., 2h) was 5,78±0,29 ml/kg/h and the Flow (Wistar rats; 200 mg/kg p.o., 3h) was 5,02±0,34 ml/kg/h. The Flow (Wistar rats; 200 mg/kg p.o., 4h) was 4,77±0,57 ml/kg/h, the Flow (Wistar rats; 200 mg/kg p.o., 5h) was 4,19±0,25 ml/kg/h and the Flow (Wistar rats; 200 mg/kg p.o., 6h) was 3,39±0,14 ml/kg/h. For the same compound, the “ml of bile flow ± s.e.” value (Wistar rats; oral by gastric probe 25 mg/kg, 0 (base values)) was 2,6±0,20 ml, the “ml of bile flow ± s.e.” value (Wistar rats; oral by gastric probe 25 mg/kg, 1 h) was 3,2±0,14 ml and the “ml of bile flow ± s.e.” value (Wistar rats; oral by gastric probe 25 mg/kg, 2 h) was 2,7±0,10 ml. For the same compound, the “ml of bile flow ± s.e.” value (Wistar rats; oral by gastric probe 25 mg/kg, 3 h) was 2,6±0,21 ml, the “ml of bile flow ± s.e.” value (Wistar rats; oral by gastric probe 25 mg/kg, 4 h) was 1,9±0,11 ml and the “ml of bile flow ± s.e.” value (Wistar rats; oral by gastric probe 25 mg/kg, 5 h) was 1,6±0,20 ml. The “ml of bile flow ± s.e.” value (Wistar rats; oral by gastric probe 25 mg/kg, 6 h) was 1,6±0,21 ml, the “ml of bile flow ± s.e.” value (Wistar rats; oral by gastric probe 50 mg/kg, 0 (base values)) was 2,8±0,19 ml and the “ml of bile flow ± s.e.” value (Wistar rats; oral by gastric probe 50 mg/kg, 1 h) was 3,7±0,31 ml. The “ml of bile flow ± s.e.” value (Wistar rats; oral by gastric probe 50 mg/kg, 2 h) was 3,4±0,22 ml, the “ml of bile flow ± s.e.” value (Wistar rats; oral by gastric probe 50 mg/kg, 3 h) was 3,2±0,19 ml and the “ml of bile flow ± s.e.” value (Wistar rats; oral by gastric probe 50 mg/kg, 4 h) was 3,0±0,18 ml. For the same compound, the “ml of bile flow ± s.e.” value (Wistar rats; oral by gastric probe 50 mg/kg, 5 h) was 2,8±0,14 ml, the “ml of bile flow ± s.e.” value (Wistar rats; oral by gastric probe 50 mg/kg, 6 h) was 2,2±0,18 ml and the “ml of bile flow ± s.e.” value (Wistar rats; oral by gastric probe 100 mg/kg, 0 (base values)) was 2,5±0,16 ml. For the same compound, the “ml of bile flow ± s.e.” value (Wistar rats; oral by gastric probe 100 mg/kg, 1 h) was 4,8±0,26 ml, the “ml of bile flow ± s.e.” value (Wistar rats; oral by gastric probe 100 mg/kg, 2 h) was 3,7±0,31 ml and the “ml of bile flow ± s.e.” value (Wistar rats; oral by gastric probe 100 mg/kg, 3 h) was 3,5±0,20 ml. For the same compound, the “ml of bile flow ± s.e.” value (Wistar rats; oral by gastric probe 100 mg/kg, 4 h) was 3,2±0,32 ml, the “ml of bile flow ± s.e.” value (Wistar rats; oral by gastric probe 100 mg/kg, 5 h) was 2,9±0,22 ml and the “ml of bile flow ± s.e.” value (Wistar rats; oral by gastric probe 100 mg/kg, 6 h) was 2,7±0,23 ml.
